Laboratory results taken from patent US20240252488A1 (KOREA RESEARCH INSTITUTE OF CHEMICAL TECHNOLOGY, priority 2020, published 2024).

What was measured:
FADD−/− Jurkat cells = test: Necroptosis inhibition assay, TNF-α-induced necroptosis (CellTiter-Glo 2.0); type: cell-based, human; settings: TNF-α 15 ng/mL; for Necroptosis inhibition assay (Rescue %) 1 μM: compound 1 μM; for Necroptosis inhibition assay (Rescue %) 10 μM: compound 10 μM
In short: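 Compound is added to cells at final concentrations of 0.1, 1 and 10 μM and left 30 minutes at room temperature. Necroptosis is induced with 15 ng/mL TNF-α, culture continues 20 to 24 hours at 37° C, and ATP-based luminescence reports viability.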

MLKL [1] = target: T1, MLKL (Homo sapiens, UniProt Q8NB16); test: MLKL degradation assay in HepG2 cell line (western blot); type: cell-based; parameters: endogenous in cells; host or cells: HepG2 or HaCaT; settings: cell line not given; for Degradation assay (Degradation %) 1 μM: compound 1 μM; for Degradation assay (Degradation %) 10 μM: compound 10 μM
T1 sequence (Q8NB16 1-471): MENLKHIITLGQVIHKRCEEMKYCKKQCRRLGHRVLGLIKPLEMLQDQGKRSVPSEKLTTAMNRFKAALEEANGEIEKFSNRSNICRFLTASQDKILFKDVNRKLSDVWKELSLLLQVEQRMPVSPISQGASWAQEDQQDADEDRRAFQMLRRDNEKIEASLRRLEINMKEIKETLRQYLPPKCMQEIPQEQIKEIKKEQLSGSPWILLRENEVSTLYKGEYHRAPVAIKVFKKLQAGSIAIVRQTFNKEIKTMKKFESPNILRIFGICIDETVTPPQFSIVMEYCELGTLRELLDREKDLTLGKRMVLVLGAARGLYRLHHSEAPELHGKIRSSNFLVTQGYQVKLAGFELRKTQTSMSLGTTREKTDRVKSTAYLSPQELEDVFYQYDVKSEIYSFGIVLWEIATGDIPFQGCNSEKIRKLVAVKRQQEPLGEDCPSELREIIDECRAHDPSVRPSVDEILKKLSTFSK
In short: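 Chemiluminescent western blot signal reports remaining MLKL protein in HepG2 cells after 20-24 h treatment with compound at a final 1 or 10 μM. Equal protein (10-15 μg, BCA) is loaded per lane.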

MLKL [2] = target: T1, MLKL; test: Measurement of binding affinity with MLKL receptor (competitive binding assay, Kd); parameters: made in house; host or cells: HEK 293 cell line (T7 phage in E. coli BL21-derived host is also described)
In short: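 qPCR of MLKL eluted from liganded beads served as the read-out, from which Kd was derived. The protein was made in HEK 293 cells with a DNA tag, and test compounds competed with the bead-bound ligand at 0.9% final DMSO.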

Compound	Necroptosis inhibition assay (Rescue %) 1 μM (FADD−/− Jurkat cells; FADD−/− Jurkat cells) [%]	Necroptosis inhibition assay (Rescue %) 10 μM (FADD−/− Jurkat cells; FADD−/− Jurkat cells) [%]	Degradation assay (Degradation %) 1 μM (MLKL [1]) [%]	Degradation assay (Degradation %) 10 μM (MLKL [1]) [%]	Kd (MLKL [2]) [nM]	Necroptosis inhibition assay (Rescue %) 1 μM (FADD−/− Jurkat cells) [%]	Necroptosis inhibition assay (Rescue %) 10 μM (FADD−/− Jurkat cells) [%]	Necroptosis inhibition assay (Rescue %) 1.1 μM (FADD−/− Jurkat cells; compound 1.1 µM)
Nc1ncc(-c2cnn(C3CCN(C(=O)CC4CCN(C(=O)CCc5ccc6c(c5)C(=O)N(C5CCC(=O)NC5=O)C6=O)CC4)CC3)c2)nc1C(=O)O[C@@H](C(=O)Nc1ccc(F)cc1)c1ccccc1 (stereo partly drawn) [TDH-403, (R)-2-((4-fluorophenyl)amino)-2-oxo-1-phenylethyl 3-amino-6-(1-(1-(2-(1-(3-(2-(2,6-dioxopiperidin-3-yl)-1,3-dioxoisoindolin-5-yl)propanoyl)piperidin-4-yl)acetyl)piperidin-4-yl)-1H-pyrazol-4-yl)pyrazine-2-carboxylate]	43.50	29.42	79.40	83.30	2.8	–	–	–
Nc1ncc(-c2cnn(C3CCN(CCC4CCN(C(=O)CNc5ccc6nnn(C7CCC(=O)NC7=O)c(=O)c6c5)CC4)CC3)c2)nc1C(=O)OC(C(=O)Nc1ccc(F)cc1)c1ccccc1 (stereo not shown) [TDH-292, 2-((4-fluorophenyl)amino)-2-oxo-1-phenylethyl 3-amino-6-(1-(1-(2-(1-((3-(2,6-dioxopiperidin-3-yl)-4-oxo-3,4-dihydrobenzo[d][1,2,3]triazin-6-yl)glycyl)piperidin-4-yl)ethyl)piperidin-4-yl)-1H-pyrazol-4-yl)pyrazine-2-carboxylate]	–	–	79.96	81.68	2.3	78.15	73.02	–
Nc1ncc(-c2cnn([C@@H]3CCN(CC4CCN(C(=O)COc5ccc6c(c5)C(=O)N(C5CCC(=O)NC5=O)C6=O)CC4)C3)c2)nc1C(=O)O[C@@H](C(=O)Nc1ccc(F)cc1)c1ccccc1 (stereo partly drawn) [TDH-359, (R)-2-((4-fluorophenyl)amino)-2-oxo-1-phenylethyl 3-amino-6-(1-((3R)-1-((1-(2-((2-(2,6-dioxopiperidin-3-yl)-1,3-dioxoisoindolin-5-yl)oxy)acetyl)piperidin-4-yl)methyl)pyrrolidin-3-yl)-1H-pyrazol-4-yl)pyrazine-2-carboxylate]	–	–	92.98	85.17	1.7	–	40.02	67.68 (1.1 µM) %
Nc1ncc(-c2cnn(C3CCN(CC4CCN(CC(=O)NCCNc5cccc6c5C(=O)N(C5CCC(=O)NC5=O)C6=O)CC4)CC3)c2)nc1C(=O)OC(C(=O)Nc1ccc(F)cc1)c1ccccc1 (stereo not shown) [TDH-234, 2-((4-fluorophenyl)amino)-2-oxo-1-phenylethyl 3-amino-6-(1-(1-((1-(2-((2-((2-(2,6-dioxopiperidin-3-yl)-1,3-dioxoisoindolin-4-yl)amino)ethyl)amino)-2-oxoethyl)piperidin-4-yl)methyl)piperidin-4-yl)-1H-pyrazol-4-yl)pyrazine-2-carboxylate]	–	–	64.08	54.89	1.6	35.55	26.56	–
Nc1ncc(-c2cnn(C3CCN(C(=O)c4cn(C5CCN(C(=O)CNc6ccc7c(c6)C(=O)N(C6CCC(=O)NC6=O)C7=O)CC5)cn4)CC3)c2)nc1C(=O)O[C@@H](C(=O)Nc1ccc(F)cc1)c1ccccc1 (stereo partly drawn) [TDH-361, (R)-2-((4-fluorophenyl)amino)-2-oxo-1-phenylethyl 3-amino-6-(1-(1-(1-(1-((2-(2,6-dioxopiperidin-3-yl)-1,3-dioxoisoindolin-5-yl)glycyl)piperidin-4-yl)-1H-imidazole-4-carbonyl)piperidin-4-yl)-1H-pyrazol-4-yl)pyrazine-2-carboxylate]	–	–	51.1	48.59	1.7	19.10	10.01	–
Nc1ncc(-c2cnn(C3CCN(C(=O)CC4CCN(C(=O)C5CCN(c6cccc7nnn(C8CCC(=O)NC8=O)c(=O)c67)CC5)CC4)CC3)c2)nc1C(=O)O[C@@H](C(=O)Nc1ccc(F)cc1)c1ccccc1 (stereo partly drawn) [TDH-412, (R)-2-((4-fluorophenyl)amino)-2-oxo-1-phenylethyl 3-amino-6-(1-(1-(2-(1-(1-(3-(2,6-dioxopiperidin-3-yl)-4-oxo-3,4-dihydrobenzo[d][1,2,3]triazin-5-yl)piperidine-4-carbonyl)piperidin-4-yl)acetyl)piperidin-4-yl)-1H-pyrazol-4-yl)pyrazine-2-carboxylate]	24.36	29.48	72.66	72.89	2.5	–	–	–
Nc1ncc(-c2cnn(C3CCN(CC4CCN(CC5CCN(C(=O)COc6ccc7c(c6)C(=O)N(C6CCC(=O)NC6=O)C7=O)CC5)CC4)CC3)c2)nc1C(=O)O[C@@H](C(=O)Nc1ccc(F)cc1)c1ccccc1 (stereo partly drawn) [TDH-425, (R)-2-((4-fluorophenyl)amino)-2-oxo-1-phenylethyl 3-amino-6-(1-(1-((1-((1-(2-((2-(2,6-dioxopiperidin-3-yl)-1,3-dioxoisoindolin-5-yl)oxy)acetyl)piperidin-4-yl)methyl)piperidin-4-yl)methyl)piperidin-4-yl)-1H-pyrazol-4-yl)pyrazine-2-carboxylate]	67.90	–	50.12	88.68	0.34	–	–	–
Nc1ncc(-c2cnn(C3CCN(CCCN4CCN(C(=O)c5cccc(C(=O)NC6CCC(=O)NC6=O)c5)CC4)CC3)c2)nc1C(=O)O[C@@H](C(=O)Nc1ccc(F)cc1)c1ccccc1 (stereo partly drawn) [TDH-542, (R)-2-((4-fluorophenyl)amino)-2-oxo-1-phenylethyl 3-amino-6-(1-(1-(3-(4-(3-((2,6-dioxopiperidin-3-yl)carbamoyl)benzoyl)piperazin-1-yl)propyl)piperidin-4-yl)-1H-pyrazol-4-yl)pyrazine-2-carboxylate]	24.80	29.40	84.12	72.45	0.53	–	–	–
Nc1ncc(-c2cnn(C3CCN(CC4CCN(CC5CCN(C(=O)CNc6ccc7c(c6)C(=O)N(C6CCC(=O)NC6=O)C7=O)CC5)CC4)CC3)c2)nc1C(=O)O[C@@H](C(=O)Nc1ccc(F)cc1)c1ccccc1 (stereo partly drawn) [TDH-426, (R)-2-((4-fluorophenyl)amino)-2-oxo-1-phenylethyl 3-amino-6-(1-(1-((1-((1-((2-(2,6-dioxopiperidin-3-yl)-1,3-dioxoisoindolin-5-yl)glycyl)piperidin-4-yl)methyl)piperidin-4-yl)methyl)piperidin-4-yl)-1H-pyrazol-4-yl)pyrazine-2-carboxylate]	55.42	–	18.62	57.41	1.2	–	–	–
Nc1ncc(-c2cnn(C3CCN(CCCN4CCN(C(=O)C5CCN(c6ccc7c(c6)C(=O)N(C6CCC(=O)NC6=O)C7=O)CC5)CC4)CC3)c2)nc1C(=O)OC(C(=O)Nc1ccc(F)cc1)c1ccccc1 (stereo not shown) [TDH-240, 2-((4-fluorophenyl)amino)-2-oxo-1-phenylethyl 3-amino-6-(1-(1-(3-(4-(1-(2-(2,6-dioxopiperidin-3-yl)-1,3-dioxoisoindolin-5-yl)piperidine-4-carbonyl)piperazin-1-yl)propyl)piperidin-4-yl)-1H-pyrazol-4-yl)pyrazine-2-carboxylate]	–	–	88.47	–	4.2	43.23	14.03	–
Nc1ncc(-c2cn(C3CCN(CC4CCN(C(=O)C5CCN(c6cccc7c6C(=O)N(C6CCC(=O)NC6=O)C7=O)CC5)CC4)CC3)nn2)nc1C(=O)OC(C(=O)Nc1ccc(F)cc1)c1ccccc1 (stereo not shown) [TDH-222, 2-((4-fluorophenyl)amino)-2-oxo-1-phenylethyl 3-amino-6-(1-(1-((1-(1-(2-(2,6-dioxopiperidin-3-yl)-1,3-dioxoisoindolin-4-yl)piperidine-4-carbonyl)piperidin-4-yl)methyl)piperidin-4-yl)-1H-1,2,3-triazol-4-yl)pyrazine-2-carboxylate]	–	–	37.4	30.04	16	45.31	34.2	–
